Measurements: paper PMC7462607 (eLife, 2020)
Where “and” joins values, the source holds several entries; their conditions need not be identical. Identical values can stand only once.

Assays:
FLAG-DDB1/CDK12KD/CCNKΔC = target: T1, FLAG-DDB1/CDK12KD/CCNKΔC (Homo sapiens, UniProt Q9NYV4); assay: FLAG-DDB1:CDK12KD/CCNKΔC pull down assay; assay type: binding
T1 construct: Human CDK12KD (residues 715–1052); 6xHis (PreScission site) (N, cleaved yes); made in house; host or cells: Sf9 or High Five (CDK12KD/CCNKΔC, co-infected with yeast CAK1); 293F (FLAG-Avi-DDB1)
T1 sequence (Q9NYV4 715-1052, stated change not applied): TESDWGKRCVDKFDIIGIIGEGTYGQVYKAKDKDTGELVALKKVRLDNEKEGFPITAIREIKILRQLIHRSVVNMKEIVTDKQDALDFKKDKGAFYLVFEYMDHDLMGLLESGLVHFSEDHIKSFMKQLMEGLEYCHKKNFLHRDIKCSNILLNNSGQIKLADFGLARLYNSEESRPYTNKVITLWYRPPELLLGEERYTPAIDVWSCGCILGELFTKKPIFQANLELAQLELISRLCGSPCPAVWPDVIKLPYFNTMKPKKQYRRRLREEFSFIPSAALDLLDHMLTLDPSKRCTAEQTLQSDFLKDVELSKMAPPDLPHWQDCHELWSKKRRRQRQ
T1 sequence (O75909 11-267 partner limits assumed): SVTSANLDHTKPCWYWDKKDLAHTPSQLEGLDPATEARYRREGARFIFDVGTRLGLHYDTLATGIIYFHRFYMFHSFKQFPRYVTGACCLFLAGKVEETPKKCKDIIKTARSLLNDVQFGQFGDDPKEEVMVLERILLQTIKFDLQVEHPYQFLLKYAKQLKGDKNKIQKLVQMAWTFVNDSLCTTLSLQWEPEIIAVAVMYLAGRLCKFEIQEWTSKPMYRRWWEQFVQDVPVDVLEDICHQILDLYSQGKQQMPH
T1 sequence (Q16531 whole entry partner, the tested form may be a part): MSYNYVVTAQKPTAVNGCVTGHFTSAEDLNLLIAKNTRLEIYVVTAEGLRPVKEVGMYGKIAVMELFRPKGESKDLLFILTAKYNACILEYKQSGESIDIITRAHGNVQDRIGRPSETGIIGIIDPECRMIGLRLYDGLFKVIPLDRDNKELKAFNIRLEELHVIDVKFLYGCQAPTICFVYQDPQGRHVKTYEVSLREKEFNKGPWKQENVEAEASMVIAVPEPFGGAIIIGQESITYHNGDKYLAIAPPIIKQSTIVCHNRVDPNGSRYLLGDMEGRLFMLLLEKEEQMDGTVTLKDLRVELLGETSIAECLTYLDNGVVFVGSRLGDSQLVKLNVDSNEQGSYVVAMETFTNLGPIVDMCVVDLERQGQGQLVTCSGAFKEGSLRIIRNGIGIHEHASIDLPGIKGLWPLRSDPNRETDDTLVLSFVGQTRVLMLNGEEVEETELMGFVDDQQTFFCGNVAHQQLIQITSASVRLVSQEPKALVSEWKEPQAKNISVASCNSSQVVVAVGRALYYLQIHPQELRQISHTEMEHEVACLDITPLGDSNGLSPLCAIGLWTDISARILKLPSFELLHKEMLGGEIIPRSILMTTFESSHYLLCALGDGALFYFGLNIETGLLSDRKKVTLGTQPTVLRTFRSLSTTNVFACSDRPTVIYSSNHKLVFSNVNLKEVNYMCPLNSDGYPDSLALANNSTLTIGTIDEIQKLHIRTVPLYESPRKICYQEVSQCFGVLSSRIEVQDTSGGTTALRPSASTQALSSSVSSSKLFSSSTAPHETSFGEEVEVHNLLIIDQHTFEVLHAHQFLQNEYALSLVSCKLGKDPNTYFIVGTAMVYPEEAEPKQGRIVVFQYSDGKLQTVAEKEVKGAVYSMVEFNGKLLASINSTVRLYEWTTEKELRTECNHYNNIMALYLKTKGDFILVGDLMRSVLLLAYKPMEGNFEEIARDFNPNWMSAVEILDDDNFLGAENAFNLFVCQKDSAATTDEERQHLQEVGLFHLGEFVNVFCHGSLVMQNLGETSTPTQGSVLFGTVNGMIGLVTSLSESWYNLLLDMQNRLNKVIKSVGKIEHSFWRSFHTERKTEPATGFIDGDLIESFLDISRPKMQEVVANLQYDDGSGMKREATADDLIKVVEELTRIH
Method: FLAG-Avi-DDB1 (18.2 µg) was mixed with CDK12KD/CCNKΔC (10 µg) at 1:1 molar ratio in 500 μL of pulldown assay buffer containing 50 mM HEPES, pH 7.5, 300 mM NaCl, 0.5 mM TCEP. The protein mix was then supplemented with DMSO or HQ461. After 30 min of incubation on ice, the protein-compound mix was incubated with anti-FLAG M2 affinity gel for another 30 min on a rotator at 4 °C. Protein-bound beads were washed three times with the pulldown assay buffer and bound proteins were eluted with 0.2 mg/mL FLAG peptide. Eluted proteins were analyzed by SDS-PAGE followed by coomassie blue staining.

[1] = target: T2, FLAG-Avi-DDB1 and His-CDK12KD/His-CCNKΔC (WT) (Homo sapiens, UniProt Q9NYV4); assay: AlphaScreen assay, WT; assay type: binding; settings: for AlphaScreen: raw signal
T2 construct: Human CDK12KD (residues 715–1052); made in house; host or cells: Sf9 or High Five (CDK12KD/CCNKΔC, co-infected with yeast CAK1); 293F with BirA (FLAG-Avi-DDB1)
T2 sequence (Q9NYV4 715-1052 limits assumed, stated change not applied): as the sequence (Q9NYV4 715-1052, stated change not applied) above
T2 sequence (O75909 11-267 partner limits assumed): as the sequence (O75909 11-267 partner limits assumed) above
T2 sequence (Q16531 whole entry partner, the tested form may be a part): as the sequence (Q16531 whole entry partner, the tested form may be a part) above
Method: Biotinylated FLAG-Avi-DDB1 (3 µM) and 6xHis-CDK12KD/6xHis-CCNKΔC (WT or G731E/R mutants) (3 µM) were mixed in an assay buffer (50 mM HEPES, pH7.5, 300 mM NaCl, 0.5 mM TCEP, 0.1% NP-40, 0.1% BSA) and a serial dilution of HQ461.The protein-compound mix was transferred to 384-well plates (Corning, Corning, USA); 15 μL per well. After a 1 hr room temperature incubation, 10 µL of nickel chelate (Ni-NTA) acceptor beads (PerkinElmer, Waltham, USA, Waltham, USA, 6760619C) (1:100 diluted with assay buffer) was added per well. After incubation in the dark for 1 hr at room temperature, 10 μL of streptavidin donor beads (PerkinElmer, Waltham, USA, 6760619C) (1:100 diluted in assay buffer) was added per well. After another 1 hr incubation, AlphaScreen signal was measured on the EnVision multimode plate reader (PerkinElmer, Waltham, USA). For THZ531 competition, FLAG-Avi-DDB1, 6xHis-CDK12KD/6xHis-CCNKΔC mix was preincubated with 5 μM of THZ531 for 30 min on ice followed by the procedures described above.

[2] = system: POLII CTD Serine 2 phosphorylation; assay: Western blotting of POLII CTD Serine 2 phosphorylation; assay type: cell-based, Homo sapiens
Method: Standard SDS-PAGE and western blotting procedures were used with the following modifications. For preparation of total lysates, cells were rinsed with DPBS to remove residual medium and then lysed in 20 mM HEPES-NaOH, pH 8.0, 10 mM NaCl, 2 mM MgCl2, 1% SDS freshly supplemented with 0.5 units/µL of benzonase and 1x cOmplete, Mini, EDTA-free protease inhibitor cocktail (Roche, Bazel, Switzerland). Protein concentrations of the resulting lysates were quantified by the BCA method. Between 30 to 60 µg of proteins were resolved on SDS-PAGE and transferred to nitrocellulose membranes with a pore size of 0.5 μm. Membranes were blocked in 5% nonfat milk PBST (0.1% v/v Tween-20) for 30 min before blotting with antibodies. […]

[3] = system: CDK12KD/CCNKΔC (WT or G731E/R); assay: Nano DSF; assay type: binding, human; settings: increasing concentrations of HQ461
Method: CDK12KD/CCNKΔC (WT or G731E/R) or DDB1ΔBPB were diluted with DSF assay buffer (50 mM HEPES pH 7.5, 300 mM NaCl, 0.5 mM TCEP) to 3.6 µM and mixed with diluted HQ461 (final DMSO concentration 2%). Tryptophan fluorescence was measured using Tycho NT.6 (NanoTemper, South San Francisco, USA). During the thermal shift experiment, temperature was increased from 35°C to 95°C and fluorescence was scanned at 350 nm and 330 nm. Ti (inflection temperature of the unfolding transition) was calculated from the 350 nm/330 nm ratio.

In the case of `Cc1cccc(Nc2nc(CC(=O)Nc3ncc(C)s3)cs2)n1` [HQ461, 2-(2-((6-methylpyridin-2-yl)amino)thiazol-4-yl)-N-(5-methylthiazol-2-yl)acetamide], the “complex formation of DDB1 with CDK12KD/CCNKΔC (pulldown)” value (FLAG-DDB1/CDK12KD/CCNKΔC) is reported as “near-stoichiometric complex”, the AlphaScreen ([1]; WT + 5 µM THZ531, HQ461 2.22e-6 M) is reported as 1078 and 1062 and 921 and the AlphaScreen ([1]; WT + 5 µM THZ531, HQ461 6.67e-6 M) is reported as 1168 and 926 and 865. For the same molecule, the AlphaScreen ([1]; WT + 5 µM THZ531, HQ461 2e-5 M) was 1307 and 1119 and 970, the AlphaScreen ([1]; WT + 5 µM THZ531, HQ461 2.47E-07 M) was 1065 and 1007 and 926 and the AlphaScreen ([1]; WT + 5 µM THZ531, HQ461 2.74E-08 M) was 1128 and 949 and 821. The AlphaScreen ([1]; WT + 5 µM THZ531, HQ461 7.41E-07 M) was 1120 and 993 and 799, the AlphaScreen ([1]; WT + 5 µM THZ531, HQ461 8.23E-08 M) was 1054 and 1033 and 906 and the AlphaScreen ([1]; WT, HQ461 2.22e-6 M) was 11213 and 9188 and 8788. The AlphaScreen ([1]; WT, HQ461 6.67e-6 M) was 16665 and 12816 and 13014, the AlphaScreen ([1]; WT, HQ461 2e-5 M) was 20710 and 15836 and 15276 and the AlphaScreen ([1]; WT, HQ461 2.47E-07 M) was 4781 and 3382 and 3265. The AlphaScreen ([1]; WT, HQ461 2.74E-08 M) was 2625 and 1724 and 1469, the AlphaScreen ([1]; WT, HQ461 7.41E-07 M) was 7377 and 5649 and 5718 and the AlphaScreen ([1]; WT, HQ461 8.23E-08 M) was 2916 and 2037 and 1777. For the same molecule, the EC50 ([1]; WT, read-out: apparent EC50 of CDK12KD/CCNKΔC/DDB1 complex formation) was 1900 nM, the “inhibitory effect on POLII CTD Serine 2 phosphorylation” value ([2]; A549 with CDK12 G731E or G731R mutation) was “abolished” and the “POLII CTD Serine 2 phosphorylation” value ([2]; parental A549) was “reduced POLII CTD Serine 2 phosphorylation”. For the same molecule, the “Tm of CDK12KD/CCNKΔC wild type or G731E/R mutants” value [3] was “increased in an HQ461 concentration-dependent manner”.
